Laboratory results: patent US8603493B2, “Carbosilane dendrimers, preparation method thereof and use of same” (Dendrico, S.L., priority 2005, dated 2013)

What was measured:
PBMC = assay: Transfection test of PBMC (confocal microscopy); format: cell-based, human; details: after 48 hours
Procedure: After incubations with the mixtures containing fluorescent ODNs, dendriplexes, dendrimers or RPMI, the cells were treated for the subsequent acquisition of images in the conventional confocal or fluorescence microscope. The cells were adhered to glass slides with wells of 30 mm in diameter by Poly-L-lysine, (PLL) (Sigma®). To do this, the slides were preincubated with 30 μl of PLL during 2 hours in an incubator at 37° C. and 5% CO2. After this incubation, the excess PLL was washed with PBS. The cells from each treatment that were going to be adhered in the PLL were washed twice with PBS and were labelled for 1 minute with 0.8% Trypan Blue (Sigma®) to then show the […] cells. They were again washed twice with PBS. At that time the cells were added to the well (100,000/well), being disposed on the PLL during 1 hour in an incubator at 37° C. and 5% CO2. After this hour, the excess volume was washed with PBS and the cells were treated with recently prepared 3% paraformaldehyde (PFA) (within 2 weeks of its use) during 10 minutes. […] Finally, the preparation was mounted using a special medium for fluorescence (DAKO Cytomation Fluorescent Mounting Medium®) with antifading (designed to protect the sample from deterioration caused by lasers). […] After the capture of images, it was analysed using Leica® software. […]

HIVNL4.3 = assay: HIV inhibition test in PBMC; format: cell-based; details: NN 1, 3 and 5 μM before or after infection, 0.4 MOI, 24 h
Procedure: The HIVNL4.3 virus strain was then added at a concentration of 1 particle per cell (1 MOI). The MT-2 and the virus were cultured during at least 2 hours at 37° C., stirring the culture every 15-30 minutes. Finally, the cultures (cells-virus) were washed twice to remove the virus which had not integrated in the cell genome. The cells were transferred and cultured in 25 cm^2 bottles in the same culture medium. […] All of them were placed in octuplicate and were maintained at 37° C. in CO2 atmosphere during a week. After this time, the titering was read by display of the cytopathic effect and […] formation. The titering was calculated by applying Spearman-Karber's formula^[30], which serves to quantify the number of particles of virus per ml of medium in a culture in which serial dilutions of the concentrate of virus to titer have been seeded in octuplicate. The PBMC were stimulated during 48 hours with 2 μg/ml of PHA and 100 IU of IL-2, to provoke a polyclonal activation; after 24 hours the cells were washed with PBS. […] The cultures were incubated at 37° C. and they were maintained in a humidified atmosphere with 5% CO2. […] To eliminate the influence of the possible toxicity of the dendrimer on the number of cells and the quantity of viral copies, the number of virus copies was adjusted to the percentage of live cells to be able to make comparisons between different dendrimer concentrations. […]

U87-MG cells = assay: Transfection of U87-MG cells mediated by dendrimers (flow cytometry); format: cell-based; details: dendriplex with anti-rev oligonucleotide 250 nM, − charge/+ charge ratio 1:8, 24 hours
Procedure: 100000 cells/well were plated of the corresponding cell line in a 24-well plate with 500 μl of medium.
Dendriplexes were formed with dendrimers NN and NN16 and the fluorescent anti-rev antisense oligonucleotide in a total volume of 75 μl of medium without serum, wherein the anti-rev oligonucleotide was mixed at a concentration 250 nM and the corresponding dendrimer in different proportions, so that different − charge/+ charge ratios were obtained: 1:1, 1:2, 1:4 and 1:8. The mixture was incubated during half an hour at ambient temperature and then it was added to the corresponding well to incubate the cells with dendriplexes.
After 24 hours of incubation, the cells were removed from the well, they were washed twice with PBS, they were incubated for 1 minute with acid glycine to remove the possible moieties of dendriplexes which may have remained adhered on the cell membrane, and a final wash was performed with PBS. Finally, the cells were resuspended in 500 μl of PBS and the quantity of fluorescent oligonucleotide inside the cell was quantified by flow cytometry.

Compound | fluorescence pattern after transfection with PPT dendriplexes (PBMC) | infection of PBMC by HIV (HIV DNA copies/10^6 cells adjusted to % live cells) (HIVNL4.3) | percentage of cells transfected (U87-MG cells)
C[Si](C)(CCCN)CCC[Si](C)(CCC[Si](C)(C)CCCN)CCC[Si](CCC[Si](C)(CCC[Si](C)(C)CCCN)CCC[Si](C)(C)CCCN)(CCC[Si](C)(CCC[Si](C)(C)CCCN)CCC[Si](C)(C)CCCN)CCC[Si](C)(CCC[Si](C)(C)CCCN)CCC[Si](C)(C)CCCN.Cl.Cl.Cl.Cl.Cl.Cl.Cl.Cl [ClNH4, 2G-[Si(CH2)3NH3^+Cl^−]8] | fluorescence pattern in aggregates |  | 
CN(CCO[Si](C)(C)CCC[Si](C)(CCC[Si](CCC[Si](C)(CCC[Si](C)(C)OCCN(C)CC[N+](C)(C)C)CCC[Si](C)(C)OCCN(C)CC[N+](C)(C)C)(CCC[Si](C)(CCC[Si](C)(C)OCCN(C)CC[N+](C)(C)C)CCC[Si](C)(C)OCCN(C)CC[N+](C)(C)C)CCC[Si](C)(CCC[Si](C)(C)OCCN(C)CC[N+](C)(C)C)CCC[Si](C)(C)OCCN(C)CC[N+](C)(C)C)CCC[Si](C)(C)OCCN(C)CC[N+](C)(C)C)CC[N+](C)(C)C.[I-].[I-].[I-].[I-].[I-].[I-].[I-].[I-] [NN, 2G-[Si(O(CH2)2N(Me)(CH2)2NMe3^+I^−)]8] |  | good capacity for preventing the infection of lymphocytes by the HIV virus | 95%
